From patent publication US20110039721A1, “METHOD FOR PREDICTION ABOUT CARCINOGENICITY OF SUBSTANCE IN RODENT” (Chemicals Evaluation and Research Institute, priority 2007, published 2011)

Experiments:
[1] = tested on: mRNA expressed from the genes (A) to (D) in rat liver; assay: Behavior of genes (mRNA expression level, oligo-DNA microarray) in rat liver after 28-day oral administration; assay type: in vivo; settings: for Behavior of gene caused by administration of chemical substance, Gene No. 4846 / Behavior of gene caused by administration of chemical substance, Gene No. 2026 / Behavior of gene caused by administration of chemical substance, Gene No. 4218 / Behavior of gene caused by administration of chemical substance, Gene No. 6182 / Behavior of gene caused by administration of chemical substance, Gene No. 5600: gene group (A); for Behavior of gene caused by administration of chemical substance, Gene No. 4846: Unigene No. Rn.144554; for Behavior of gene caused by administration of chemical substance, Gene No. 2026 / Behavior of gene caused by administration of chemical substance, Gene No. 4218: Unigene No. Rn.167075; for Behavior of gene caused by administration of chemical substance, Gene No. 6182: Unigene No. Rn.5834; for Behavior of gene caused by administration of chemical substance, Gene No. 5600: Unigene No. Rn.9836; for Behavior of gene caused by administration of chemical substance, Gene No. 1494 / Behavior of gene caused by administration of chemical substance, Gene No. 2045 / Behavior of gene caused by administration of chemical substance, Gene No. 2203: gene group (B); for Behavior of gene caused by administration of chemical substance, Gene No. 1494: Unigene No. Rn.1430; for Behavior of gene caused by administration of chemical substance, Gene No. 2045: Unigene No. Rn.19329; for Behavior of gene caused by administration of chemical substance, Gene No. 2203: Unigene No. Rn.21240; for Behavior of gene caused by administration of chemical substance, Gene No. 533 / Behavior of gene caused by administration of chemical substance, Gene No. 725 / Behavior of gene caused by administration of chemical substance, Gene No. 1163 / Behavior of gene caused by administration of chemical substance, Gene No. 4973 / Behavior of gene caused by administration of chemical substance, Gene No. 4095 / Behavior of gene caused by administration of chemical substance, Gene No. 1334 / Behavior of gene caused by administration of chemical substance, Gene No. 6620 / Behavior of gene caused by administration of chemical substance, Gene No. 6303 / Behavior of gene caused by administration of chemical substance, Gene No. 5878 / Behavior of gene caused by administration of chemical substance, Gene No. 1131 / Behavior of gene caused by administration of chemical substance, Gene No. 1562 / Behavior of gene caused by administration of chemical substance, Gene No. 1741 / Behavior of gene caused by administration of chemical substance, Gene No. 893 / Behavior of gene caused by administration of chemical substance, Gene No. 6026 / Behavior of gene caused by administration of chemical substance, Gene No. 154 / Behavior of gene caused by administration of chemical substance, Gene No. 1993 / Behavior of gene caused by administration of chemical substance, Gene No. 813 / Behavior of gene caused by administration of chemical substance, Gene No. 2494 / Behavior of gene caused by administration of chemical substance, Gene No. 2546 / Behavior of gene caused by administration of chemical substance, Gene No. 3776 / Behavior of gene caused by administration of chemical substance, Gene No. 3929 / Behavior of gene caused by administration of chemical substance, Gene No. 1119 / Behavior of gene caused by administration of chemical substance, Gene No. 6742 / Behavior of gene caused by administration of chemical substance, Gene No. 5634: gene group (C); for Behavior of gene caused by administration of chemical substance, Gene No. 533: Unigene No. Rn.106184; for Behavior of gene caused by administration of chemical substance, Gene No. 725: Unigene No. Rn.108075; for Behavior of gene caused by administration of chemical substance, Gene No. 1163: Unigene No. Rn.11766; for Behavior of gene caused by administration of chemical substance, Gene No. 4973: Unigene No. Rn.118529; for Behavior of gene caused by administration of chemical substance, Gene No. 4095: Unigene No. Rn.119024; for Behavior of gene caused by administration of chemical substance, Gene No. 1334 / Behavior of gene caused by administration of chemical substance, Gene No. 6620: Unigene No. Rn.120914; for Behavior of gene caused by administration of chemical substance, Gene No. 6303: Unigene No. Rn.123063; for Behavior of gene caused by administration of chemical substance, Gene No. 5878: Unigene No. Rn.143213; for Behavior of gene caused by administration of chemical substance, Gene No. 1131: Unigene No. Rn.144946; for Behavior of gene caused by administration of chemical substance, Gene No. 1562: Unigene No. Rn.14744; for Behavior of gene caused by administration of chemical substance, Gene No. 1741: Unigene No. Rn.1647; for Behavior of gene caused by administration of chemical substance, Gene No. 893: Unigene No. Rn.164817; for Behavior of gene caused by administration of chemical substance, Gene No. 6026: Unigene No. Rn.167685; for Behavior of gene caused by administration of chemical substance, Gene No. 154: Unigene No. Rn.185941; for Behavior of gene caused by administration of chemical substance, Gene No. 1993: Unigene No. Rn.18728; for Behavior of gene caused by administration of chemical substance, Gene No. 813: Unigene No. Rn.201760; for Behavior of gene caused by administration of chemical substance, Gene No. 2494: Unigene No. Rn.23969; for Behavior of gene caused by administration of chemical substance, Gene No. 2546: Unigene No. Rn.24561; for Behavior of gene caused by administration of chemical substance, Gene No. 3776: Unigene No. Rn.43232; for Behavior of gene caused by administration of chemical substance, Gene No. 3929: Unigene No. Rn.4620; for Behavior of gene caused by administration of chemical substance, Gene No. 1119: Unigene No. Rn.9757; for Behavior of gene caused by administration of chemical substance, Gene No. 6742: Unigene No. Rn.9779; for Behavior of gene caused by administration of chemical substance, Gene No. 5634: Unigene No. Rn.9862; for Behavior of gene caused by administration of chemical substance, Gene No. 5726: gene group (D), Unigene No. Rn.9939
Outline: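 Rat liver RNA after 28 days of daily gavage dosing (male F344, 5 weeks old, four per group). A change reaching 1.5-fold, or 1/1.5, against solvent control scores as significant; opposite direction versus another carcinogen scores as not significant.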

rodent = settings: classification of the substance (C+/C−); cited from earlier work

| SMILES | Behavior of gene caused by administration of chemical substance, Gene No. 4846 [1] | Behavior of gene caused by administration of chemical substance, Gene No. 2026 [1] | Behavior of gene caused by administration of chemical substance, Gene No. 4218 [1] | Behavior of gene caused by administration of chemical substance, Gene No. 6182 [1] | Behavior of gene caused by administration of chemical substance, Gene No. 5600 [1] | Behavior of gene caused by administration of chemical substance, Gene No. 1494 [1] | Behavior of gene caused by administration of chemical substance, Gene No. 2045 [1] | Behavior of gene caused by administration of chemical substance, Gene No. 2203 [1] | Behavior of gene caused by administration of chemical substance, Gene No. 533 [1] | Behavior of gene caused by administration of chemical substance, Gene No. 725 [1] | Behavior of gene caused by administration of chemical substance, Gene No. 1163 [1] | Behavior of gene caused by administration of chemical substance, Gene No. 4973 [1] | Behavior of gene caused by administration of chemical substance, Gene No. 4095 [1] | Behavior of gene caused by administration of chemical substance, Gene No. 1334 [1] | Behavior of gene caused by administration of chemical substance, Gene No. 6620 [1] | Behavior of gene caused by administration of chemical substance, Gene No. 6303 [1] | Behavior of gene caused by administration of chemical substance, Gene No. 5878 [1] | Behavior of gene caused by administration of chemical substance, Gene No. 1131 [1] | Behavior of gene caused by administration of chemical substance, Gene No. 1562 [1] | Behavior of gene caused by administration of chemical substance, Gene No. 1741 [1] | further results |
| --- | --- | --- | --- | --- | --- | --- | --- | --- | --- | --- | --- | --- | --- | --- | --- | --- | --- | --- | --- | --- | --- |
| O=C(c1ccccc1)C(O)c1ccccc1 (stereo not shown) [TS038, Benzoin] | − | + | − | − | − | − | − | − | − | − | − | + | + | − | − | + | − | − | − | − | Behavior of gene caused by administration of chemical substance, Gene No. 893 [1]: −; Behavior of gene caused by administration of chemical substance, Gene No. 6026 [1]: +; Behavior of gene caused by administration of chemical substance, Gene No. 154 [1]: +; Behavior of gene caused by administration of chemical substance, Gene No. 1993 [1]: +; Behavior of gene caused by administration of chemical substance, Gene No. 813 [1]: −; Behavior of gene caused by administration of chemical substance, Gene No. 2494 [1]: −; Behavior of gene caused by administration of chemical substance, Gene No. 2546 [1]: +; Behavior of gene caused by administration of chemical substance, Gene No. 3776 [1]: −; Behavior of gene caused by administration of chemical substance, Gene No. 3929 [1]: −; Behavior of gene caused by administration of chemical substance, Gene No. 1119 [1]: +; Behavior of gene caused by administration of chemical substance, Gene No. 6742 [1]: −; Behavior of gene caused by administration of chemical substance, Gene No. 5634 [1]: +; Behavior of gene caused by administration of chemical substance, Gene No. 5726 [1]: −; Carcinogenicity (rodent): C− |
| O=C1O[C@H]([C@@H](O)CO)C(O)=C1O [TS010, L-Ascorbic acid] | − | − | − | − | − | − | − | − | − | − | − | − | − | − | − | − | − | + | − | − | Behavior of gene caused by administration of chemical substance, Gene No. 893 [1]: −; Behavior of gene caused by administration of chemical substance, Gene No. 6026 [1]: −; Behavior of gene caused by administration of chemical substance, Gene No. 154 [1]: −; Behavior of gene caused by administration of chemical substance, Gene No. 1993 [1]: −; Behavior of gene caused by administration of chemical substance, Gene No. 813 [1]: −; Behavior of gene caused by administration of chemical substance, Gene No. 2494 [1]: −; Behavior of gene caused by administration of chemical substance, Gene No. 2546 [1]: −; Behavior of gene caused by administration of chemical substance, Gene No. 3776 [1]: −; Behavior of gene caused by administration of chemical substance, Gene No. 3929 [1]: −; Behavior of gene caused by administration of chemical substance, Gene No. 1119 [1]: −; Behavior of gene caused by administration of chemical substance, Gene No. 6742 [1]: −; Behavior of gene caused by administration of chemical substance, Gene No. 5634 [1]: −; Behavior of gene caused by administration of chemical substance, Gene No. 5726 [1]: − |
